Test results published in patent US11673898B2, “Substituted inhibitors of menin-MLL and methods of use” (Kura Oncology, Inc., priority 2016, dated 2023).

Biological target: T1, Menin MLL 4-43 (Homo sapiens, UniProt O00255)
T1 sequence (O00255 1-610): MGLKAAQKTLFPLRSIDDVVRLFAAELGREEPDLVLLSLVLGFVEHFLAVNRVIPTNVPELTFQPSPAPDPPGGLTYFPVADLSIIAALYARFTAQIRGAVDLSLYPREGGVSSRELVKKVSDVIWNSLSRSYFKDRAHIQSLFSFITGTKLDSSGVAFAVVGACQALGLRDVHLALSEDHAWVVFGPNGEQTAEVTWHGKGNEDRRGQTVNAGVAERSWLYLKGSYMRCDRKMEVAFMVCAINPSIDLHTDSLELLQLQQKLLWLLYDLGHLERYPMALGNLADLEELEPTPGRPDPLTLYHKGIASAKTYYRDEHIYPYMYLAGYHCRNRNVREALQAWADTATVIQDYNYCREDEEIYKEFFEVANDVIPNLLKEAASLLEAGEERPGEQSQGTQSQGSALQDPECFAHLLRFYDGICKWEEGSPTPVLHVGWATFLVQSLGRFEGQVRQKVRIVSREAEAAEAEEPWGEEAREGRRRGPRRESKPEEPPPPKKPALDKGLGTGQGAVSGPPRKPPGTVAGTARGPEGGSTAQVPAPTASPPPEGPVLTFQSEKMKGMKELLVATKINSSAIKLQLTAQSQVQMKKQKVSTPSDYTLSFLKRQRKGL
Experiment: Fluorescence polarization (FP) competition assay of the menin-MLL interaction
Type: binding
Settings: fluorescence polarization assay; read-out: Menin MLL 4-43 IC50

Compound	IC50
Cc1c(CN2CCC(Nc3nc(N)nc4sc(CC(F)(F)F)cc34)CC2)ccc2c1cc(C#N)n2C[C@H](C)N1CCC(F)(F)CC1 [Compound 168]	50 to 250 nM
Cc1c(CN2CCC(Nc3ncnc4sc(CC(F)(F)F)cc34)CC2)ccc2c1cc(C#N)n2CC(C)N1CC(NS(C)(=O)=O)C1 (stereo not drawn) [Compound 169]	20 to 1000 nM
Cc1c(CN2CCC(Nc3nc(N(C)C)nc4sc(CC(F)(F)F)cc34)CC2)ccc2c1cc(C#N)n2C[C@H](C)N1CCN(S(C)(=O)=O)CC1 [Compound 170]	> 1000 nM
Cc1c(CN2CCC(Nc3nc(C4CC4)nc4sc(CC(F)(F)F)cc34)CC2)ccc2c1cc(C#N)n2C[C@H](C)N1CCN(S(C)(=O)=O)CC1 [Compound 173]	20 to 1000 nM
Cc1nc(NC2CCN(Cc3ccc4c(cc(C#N)n4C[C@H](C)N4CCN(CC(N)=O)CC4)c3C)CC2)c2cc(CC(F)(F)F)sc2n1 [Compound 178]	< 50 nM
Cc1c(CN2CCC(Nc3nc(N)nc4sc(CC(F)(F)F)cc34)CC2)ccc2c1cc(C#N)n2C[C@H](C)N1C[C@@H](C)N(S(C)(=O)=O)[C@H](C)C1 [Compound 179]	50 to 250 nM
Cc1c(CN2CCC(Nc3nc(N)nc4sc(CC(F)(F)F)cc34)CC2)ccc2c1cc(C#N)n2C[C@@H](C)N1C[C@@H](C)N(S(C)(=O)=O)[C@H](C)C1 [Compound 180]	50 to 250 nM
CNc1nc(NC2CCN(Cc3ccc4c(cc(C#N)n4C[C@H](C)N4CCN(CC(N)=O)CC4)c3C)CC2)c2cc(CC(F)(F)F)sc2n1 [Compound 182]	< 50 nM
CNS(=O)(=O)C1CCN([C@@H](C)Cn2c(C#N)cc3c(C)c(CN4CCC(Nc5nc(N)nc6sc(CC(F)(F)F)cc56)CC4)ccc32)CC1 [Compound 184]	< 50 nM
CNc1nc(NC2CCN(Cc3ccc4c(cc(C#N)n4C[C@H](C)N4CCC(S(=O)(=O)NC)CC4)c3C)CC2)c2cc(CC(F)(F)F)sc2n1 [Compound 185]	50 to 250 nM
CNS(=O)(=O)C1CCN([C@@H](C)Cn2c(C#N)cc3c(C)c(CN4CCC(Nc5nc(C)nc6sc(CC(F)(F)F)cc56)CC4)ccc32)CC1 [Compound 186]	< 50 nM
Cc1c(CN2CCC(Nc3nc(N)nc4sc(CC(F)(F)F)cc34)CC2)ccc2c1cc(C#N)n2C[C@H](C)N1CCN(S(=O)(=O)CCO)CC1 [Compound 187]	< 50 nM
Cc1c(CN2CCC(Nc3nc(N)nc4sc(CC(F)(F)F)cc34)CC2)ccc2c1cc(C#N)n2C[C@H](C)N1CCOCC1 [Compound 188]	50 to 250 nM
CNC(=O)CN1CCN([C@@H](C)Cn2c(C#N)cc3c(C)c(CN4CCC(Nc5nc(NC)nc6sc(CC(F)(F)F)cc56)CC4)ccc32)CC1 [Compound 189]	< 50 nM
Cc1c(CN2CCC(Nc3nc(N)nc4sc(CC(F)(F)F)cc34)CC2)ccc2c1cc(C#N)n2C[C@H](C)N1CCN(C2CC2)CC1 [Compound 190]	50 to 250 nM
CNc1nc(NC2CCN(Cc3ccc4c(cc(C#N)n4C[C@H](C)N4CCN(CC(=O)N(C)C)CC4)c3C)CC2)c2cc(CC(F)(F)F)sc2n1 [Compound 191]	< 50 nM
CNc1nc(NC2CCN(Cc3ccc4c(cc(C#N)n4C[C@H](C)N4CCN(S(=O)(=O)NC)CC4)c3C)CC2)c2cc(CC(F)(F)F)sc2n1 [Compound 192]	< 50 nM
CNc1nc(NC2CCN(Cc3ccc4c(cc(C#N)n4C[C@H](C)N4CCC(S(C)(=O)=O)CC4)c3C)CC2)c2cc(CC(F)(F)F)sc2n1 [Compound 193]	< 50 nM
CNc1nc(NC2CCN(Cc3cc4cc(C#N)n(C[C@H](C)N5CCN(S(C)(=O)=O)CC5)c4cc3O)CC2)c2cc(CC(F)(F)F)sc2n1 [Compound 194]	< 50 nM
CNc1nc(NC2CCN(Cc3ccc4c(cc(C#N)n4C[C@H](C)N4CCC(F)(F)CC4)c3C)CC2)c2cc(CC(F)(F)F)sc2n1 [Compound 195]	50 to 250 nM
CNc1nc(NC2CCN(Cc3ccc4c(cc(C#N)n4C[C@H](C)N4CCN(S(C)(=O)=O)[C@H](C(=O)N(C)C)C4)c3C)CC2)c2cc(CC(F)(F)F)sc2n1 [Compound 196]	< 50 nM
CNC(=O)[C@@H]1CN([C@@H](C)Cn2c(C#N)cc3c(C)c(CN4CCC(Nc5nc(NC)nc6sc(CC(F)(F)F)cc56)CC4)ccc32)CCN1S(C)(=O)=O [Compound 197]	< 50 nM
CNc1nc(NC2CCN(Cc3ccc4c(cc(C#N)n4C[C@H](C)N4CCN(S(=O)(=O)CF)CC4)c3C)CC2)c2cc(CC(F)(F)F)sc2n1 [Compound 198]	50 to 250 nM
CCOC(=O)c1c(CC(F)(F)F)sc2ncnc(NC3CCN(Cc4ccc5c(cc(C#N)n5C[C@H](C)N5CCN(S(C)(=O)=O)CC5)c4C)CC3)c12 [Compound 200]	> 1000 nM
Cc1nc(NC2CCN(Cc3ccc4c(cc(C#N)n4C[C@@H](C)N4CCN(S(C)(=O)=O)CC4)c3C)CC2)c2cc(CC(F)(F)F)sc2n1 [Compound 201]	20 to 1000 nM
CNc1nc(NC2CCN(Cc3ccc4c(cc(C#N)n4C[C@H](C)N4CCC(CC(=O)N(C)C)CC4)c3C)CC2)c2cc(CC(F)(F)F)sc2n1 [Compound 202]	< 50 nM

Compound	IC50
CNc1nc(NC2CCN(Cc3ccc4c(cc(C#N)n4C[C@H](C)N4CCC(CC(N)=O)CC4)c3C)CC2)c2cc(CC(F)(F)F)sc2n1 [Compound 204]	< 50 nM
CNC(=O)CC1CCN([C@@H](C)Cn2c(C#N)cc3c(C)c(CN4CCC(Nc5nc(NC)nc6sc(CC(F)(F)F)cc56)CC4)ccc32)CC1 [Compound 206]	< 50 nM
CNc1nc(NC2CCN(Cc3ccc4c(cc(C#N)n4C[C@H](C)N4CCN(S(C)(=O)=O)[C@H](C#N)C4)c3C)CC2)c2cc(CC(F)(F)F)sc2n1 [Compound 209]	< 50 nM
CCS(=O)(=O)N1CCN([C@@H](C)Cn2c(C#N)cc3c(C)c(CN4CCC(Nc5nc(NC)nc6sc(CC(F)(F)F)cc56)CC4)ccc32)CC1 [Compound 210]	< 50 nM
CNc1nc(NC2CCN(Cc3ccc4c(cc(C#N)n4C[C@H](C)N4CCN(S(=O)(=O)C5CC5)CC4)c3C)CC2)c2cc(CC(F)(F)F)sc2n1 [Compound 211]	50 to 250 nM
C=CC(=O)NC1CCN([C@@H](C)Cn2c(C#N)cc3c(C)c(CN4CCC(Nc5nc(NC)nc6sc(CC(F)(F)F)cc56)CC4)ccc32)CC1 [Compound 212]	< 50 nM
CCC(=O)NC1CCN([C@@H](C)Cn2c(C#N)cc3c(C)c(CN4CCC(Nc5nc(NC)nc6sc(CC(F)(F)F)cc56)CC4)ccc32)CC1 [Compound 213]	< 50 nM
CNc1nc(NC2CCN(Cc3ccc4c(cc(C#N)n4C[C@H](C)N4CCOC(C(=O)N(C)C)C4)c3C)CC2)c2cc(CC(F)(F)F)sc2n1 (stereo partly drawn) [Compound 215]	< 50 nM
CNc1nc(NC2CCN(Cc3ccc4c(cc(C#N)n4C[C@H](C)N4CCOC(C(N)=O)C4)c3C)CC2)c2cc(CC(F)(F)F)sc2n1 (stereo partly drawn) [Compound 216]	< 50 nM
Cc1nc(NC2CCN(Cc3ccc4c(cc(C#N)n4C[C@H](C)N4CCS(=O)(=O)CC4)c3C)CC2)c2cc(CC(F)(F)F)sc2n1 [Compound 219]	< 50 nM
CNC(=O)CC1CCN([C@@H](C)Cn2c(C#N)cc3c(C)c(CN4CCC(Nc5nc(C)nc6sc(CC(F)(F)F)cc56)CC4)ccc32)CC1 [Compound 220]	< 50 nM
Cc1nc(NC2CCN(Cc3ccc4c(cc(C#N)n4C[C@H](C)N4CCC(CC(=O)N(C)C)CC4)c3C)CC2)c2cc(CC(F)(F)F)sc2n1 [Compound 221]	< 50 nM
Cc1c(CN2CCC(Nc3nc(F)nc4sc(CC(F)(F)F)cc34)CC2)ccc2c1cc(C#N)n2C[C@H](C)N1CCN(S(C)(=O)=O)CC1 [Compound 222]	< 50 nM
CNc1nc(NC2CCN(Cc3ccc4c(cc(C#N)n4C[C@H](C)N4CCNCC4=O)c3C)CC2)c2cc(CC(F)(F)F)sc2n1 [Compound 225]	< 50 nM
CNc1nc(NC2CCN(Cc3ccc4c(cc(C#N)n4C[C@H](C)N4CCN(C)CC4=O)c3C)CC2)c2cc(CC(F)(F)F)sc2n1 [Compound 226]	< 50 nM
CNc1nc(NC2CCN(Cc3ccc4c(cc(C#N)n4CC(C)c4ccc(=O)[nH]c4)c3C)CC2)c2cc(CC(F)(F)F)sc2n1 (stereo not drawn) [Compound 229]	< 50 nM
CNc1nc(NC2CCN(Cc3ccc4c(cc(C#N)n4CC(C)c4cn[nH]c4)c3C)CC2)c2cc(CC(F)(F)F)sc2n1 (stereo not drawn) [Compound 230]	50 to 250 nM
CNc1nc(NC2CCN(Cc3ccc4c(cc(C#N)n4C[C@H](C)N4CCN(S(C)(=O)=O)C(CO)C4)c3C)CC2)c2cc(CC(F)(F)F)sc2n1 (stereo partly drawn) [Compound 233]	< 50 nM
Cc1c(CN2CCC(Nc3nc(CF)nc4sc(CC(F)(F)F)cc34)CC2)ccc2c1cc(C#N)n2C[C@H](C)N1CCN(S(C)(=O)=O)CC1 [Compound 241]	50 to 250 nM
Cc1nc(NC2CCN(Cc3ccc4c(cc(C#N)n4C[C@H](C)N4CCN(S(C)(=O)=O)CC4)c3C)CC2)c2c(C)c(CC(F)(F)F)sc2n1 [Compound 242]	> 1000 nM
CNc1nc(NC2CCN(Cc3ccc4c(cc(C#N)n4C[C@H](C)N4CCN(C)C(=O)C4)c3C)CC2)c2cc(CC(F)(F)F)sc2n1 [Compound 243]	< 50 nM
CNc1nc(NC2CCN(Cc3ccc4c(cc(C#N)n4C[C@H](C)N4CCNC(=O)C4)c3C)CC2)c2cc(CC(F)(F)F)sc2n1 [Compound 244]	< 50 nM
CC(=O)OCc1nc(NC2CCN(Cc3ccc4c(cc(C#N)n4C[C@H](C)N4CCN(S(C)(=O)=O)CC4)c3C)CC2)c2cc(CC(F)(F)F)sc2n1 [Compound 245]	50 to 250 nM
Cc1c(CN2CCC(Nc3nc(CO)nc4sc(CC(F)(F)F)cc34)CC2)ccc2c1cc(C#N)n2C[C@H](C)N1CCN(S(C)(=O)=O)CC1 [Compound 246]	< 50 nM
CNc1nc(NC2CCN(Cc3ccc4c(cc(C#N)n4CC(C)C4CCN(S(C)(=O)=O)CC4)c3C)CC2)c2cc(CC(F)(F)F)sc2n1 (stereo not drawn) [Compound 247]	< 50 nM
